In BindingDB's records for patent US10202381 (Celgene Quanticel Research Inc, 2019):

Biological target: T1, Lysine-specific demethylase 4C (Homo sapiens, UniProt Q9H3R0)
T1 sequence (Q9H3R0 whole entry): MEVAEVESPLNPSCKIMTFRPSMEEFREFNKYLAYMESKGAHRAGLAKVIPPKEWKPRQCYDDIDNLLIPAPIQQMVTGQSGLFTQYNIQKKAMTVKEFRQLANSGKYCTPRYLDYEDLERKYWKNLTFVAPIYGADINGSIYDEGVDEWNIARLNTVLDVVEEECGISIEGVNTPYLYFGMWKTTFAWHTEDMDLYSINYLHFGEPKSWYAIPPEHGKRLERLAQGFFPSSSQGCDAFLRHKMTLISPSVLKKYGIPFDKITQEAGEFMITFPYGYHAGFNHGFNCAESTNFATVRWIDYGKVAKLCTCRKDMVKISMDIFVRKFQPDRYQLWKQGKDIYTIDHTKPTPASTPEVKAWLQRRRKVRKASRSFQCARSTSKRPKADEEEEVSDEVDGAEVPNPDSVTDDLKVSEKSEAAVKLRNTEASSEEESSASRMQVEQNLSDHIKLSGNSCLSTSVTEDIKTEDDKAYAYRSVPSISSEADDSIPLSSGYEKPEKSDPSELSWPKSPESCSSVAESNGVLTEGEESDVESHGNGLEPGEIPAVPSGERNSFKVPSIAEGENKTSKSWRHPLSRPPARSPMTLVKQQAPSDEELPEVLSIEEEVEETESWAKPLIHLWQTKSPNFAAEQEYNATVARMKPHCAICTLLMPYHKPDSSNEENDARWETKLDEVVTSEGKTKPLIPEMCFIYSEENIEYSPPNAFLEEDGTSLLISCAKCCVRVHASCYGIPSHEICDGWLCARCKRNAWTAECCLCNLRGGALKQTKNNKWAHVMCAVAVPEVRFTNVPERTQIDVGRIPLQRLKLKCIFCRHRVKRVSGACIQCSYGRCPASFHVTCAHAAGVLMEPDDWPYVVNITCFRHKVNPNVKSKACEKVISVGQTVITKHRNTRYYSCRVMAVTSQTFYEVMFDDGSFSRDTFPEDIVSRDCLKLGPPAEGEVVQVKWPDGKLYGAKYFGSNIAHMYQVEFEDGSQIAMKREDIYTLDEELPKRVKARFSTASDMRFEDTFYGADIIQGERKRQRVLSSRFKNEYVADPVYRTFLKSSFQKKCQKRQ
Assay: JMJD2C Assay
Procedure: The ability of test compounds to inhibit the activity of JMJD2C was determined in 384-well plate-format under the following reaction conditions: 0.3 nM JMJD2C, 300 nM H3K9me3-biotin labeled peptide (Anaspec cat #64360), 2 μM alpha-ketoglutaric acid in assay buffer of 50 mM HEPES, pH 7.3, 0.005% Brij35, 0.5 mM TCEP, 0.2 mg/ml BSA, 50 μM sodium L-ascorbate, and 2 μM ammonium iron(II) sulfate. Reaction product was determined quantitatively by TR-FRET after the addition of detection reagent Phycolink Streptavidin-allophycocyanin (Prozyme) and Europium-anti-di-methylated histone H3 lysine 9 (H3K9me2) antibody (PerkinElmer) in the presence of 5 mM EDTA in LANCE detection buffer (PerkinElmer) at a final concentration of 50 nM and 1 nM, respectively.The assay reaction was initiated by the following: 2 μl of the mixture of 900 nM H3K9me3-biotin labeled peptide and 6 μM alpha-ketoglutaric acid with 2 μl of 11-point serial diluted inhibitor in 3% DMSO were added to each well of the plate, followed by the addition of 2 μl of 0.9 nM JMJD2C to initiate the reaction. […] Plates were read by EnVisionMultilabel Reader in TR-FRET mode (excitation at 320 nm, emission at 615 nm and 665 nm) after 1 hr incubation at room temperature. A ratio was calculated (665/615) for each well and fitted to determine inhibition constant (IC50).

SMILES	IC50 [nM]
Cc1cc(Oc2nc(O)c3ccncc3n2)ccc1N(C)c1cc(N2CCN(C)CC2)ccc1C [US10202381, Example 147]	< 100
COc1ccc(N2CCN(C)CC2)cc1N(C)c1ccc(Oc2nc(O)c3ccncc3n2)cc1C [US10202381, Example 145]	< 100
